Results published in patent US20200095236A1, “ANTIBACTERIAL COMPOUNDS” (FORGE THERAPEUTICS, INC., priority 2017, published 2020).
In brackets after ≈: the same amount, converted by molar mass. Read-outs that look alike come from different tables or passages of the source.

Key:
[1] = system: TLR-4 activity of A. baumannii culture supernatants; test: TLR4 assay: TLR4 activity of A. baumannii culture supernatants in HEK-Blue-hTLR4 cells; type: cell-based; details: Acinetobacter baumannii, HEK-Blue hTLR4, read-out: % TLR-4 activity
Protocol: The TLR4 assay measures activity of diluted filter-sterilized A. baumannii culture supernatants. The assay was performed as described in Lin et al, Mbio, 2012. Briefly, A. baumannii was passaged to mid log-phase in the presence of Forge LpxC inhibitors. Culture supernatants were harvested, filter-sterilized and diluted 1:1000. TLR4 activity of the supernatants was tested using HEK-Blue-hTLR4 cells (Invivogen) that carry NF-kB and AP-1 driven SEAP (secreted embryonic alkaline phosphatase) reporter gene.
Exemplary TLR4 assay data (% TLR-4 activity) for compounds in embodiments of the disclosure.

[2] = system: K. pneumoniae; test: Bacterial susceptibility testing, MIC by broth microdilution (CLSI); type: cell-based; details: Klebsiella pneumoniae, read-out: K. pneumoniae MIC
Protocol: (§1) Minimal inhibitory concentrations (MIC) were determined by the broth microdilution method in accordance with the Clinical and Laboratory Standards Institute (CLSI) guidelines. In brief, organism suspensions were adjusted to a 0.5 McFarland standard to yield a final inoculum between 3×10^5 and 7×10^5 colony-forming units (CFU)/mL. Drug dilutions and inocula were made in sterile, cation adjusted Mueller-Hinton Broth (Beckton Dickinson). An inoculum volume of 100 μL was added to wells containing 100 μL of broth with 2-fold serial dilutions of drug. All inoculated microdilution trays were incubated in ambient air at 35° C. for 18-24 h. Following incubation, the lowest concentration of the drug that prevented visible growth (OD600 nm<0.05) was recorded as the MIC. Performance of the assay was monitored by the use of laboratory quality-control strains and levofloxacin, a compound with a defined MIC spectrum, in accordance with CLSI guidelines.

[3] = system: S. aureus; test: as above; type: cell-based; details: Staphylococcus aureus, read-out: S. aureus MIC
Protocol: as §1

[4] = system: E. coli; test: as above; type: cell-based; details: Escherichia coli, read-out: E. coli MIC
Protocol: as §1

[5] = molecular target: E. coli LpxC (Escherichia coli, UniProt P0A725); test: LpxC Binding Assay (Rapid Fire MS assay); type: biochemical
[6] = broth microdilution, 35° C., 18-24 h

Sequence of E. coli LpxC (P0A725 whole entry): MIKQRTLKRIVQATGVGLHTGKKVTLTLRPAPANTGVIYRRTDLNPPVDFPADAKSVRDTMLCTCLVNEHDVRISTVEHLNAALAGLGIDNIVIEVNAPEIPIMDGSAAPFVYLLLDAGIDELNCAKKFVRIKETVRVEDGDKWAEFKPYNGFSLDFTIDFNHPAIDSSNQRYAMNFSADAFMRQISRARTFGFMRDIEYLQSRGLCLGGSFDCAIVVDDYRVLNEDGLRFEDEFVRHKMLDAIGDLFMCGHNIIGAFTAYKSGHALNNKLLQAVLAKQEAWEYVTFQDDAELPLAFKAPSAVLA

Structure (SMILES) | MIC [2, 6] [µg/mL] | MIC [3, 6] [µg/mL] | MIC [4, 6] [µg/mL] | IC50 [5] [nM] | further results
CC(=O)NC[C@@H](Cc1ccc(C#Cc2ccc(CN3CCOCC3)cc2)cc1)c1nc[nH]c(=O)c1O [Compound 14, (R)-N-(2-(5-hydroxy-6-oxo-1,6-dihydropyrimidin-4-yl)-3-(4-((4-(morpholinomethyl)phenyl)ethynyl)phenyl)propyl)acetamide] | 8 to 32 (≈ 16.4 to 65.8 µM) | > 32 | 1 to 8 (≈ 2.06 to 16.4 µM) | – | activity at 4 µg/mL [1]: > 80%; activity at 8 µg/mL [1]: > 80%; activity at 16 µg/mL [1]: > 80%
O=C(CF)NCC(Cc1ccc(C#Cc2ccc(CN3CCCC3)cc2)cc1)c1nc[nH]c(=O)c1O (centres unmarked) [Compound 44, 2-fluoro-N-(2-(5-hydroxy-6-oxo-1,6-dihydropyrimidin-4-yl)-3-(4-((4-(pyrrolidin-1-ylmethyl)phenyl)ethynyl)phenyl)propyl)acetamide] | – | – | – | – | MIC [2]: > 32 µg/mL; MIC [3]: > 32 µg/mL; MIC [4]: > 32 µg/mL
N[C@@H]1CCN(Cc2ccc(C#Cc3ccc(CC(CNC(=O)CF)c4nc[nH]c(=O)c4O)cc3)cc2)C1 (stereo partly drawn) [Compound 45, N-(3-(4-((4-(((R)-3-aminopyrrolidin-1-yl)methyl)phenyl)ethynyl)phenyl)-2-(5-hydroxy-6-oxo-1,6-dihydropyrimidin-4-yl)propyl)-2-fluoroacetamide] | – | – | – | – | MIC [2]: > 32 µg/mL; MIC [3]: > 32 µg/mL; MIC [4]: > 32 µg/mL
O=C(CN1CCC1)NCC(Cc1ccc(C#Cc2ccc(CN3CCOCC3)cc2)cc1)c1nc[nH]c(=O)c1O (centres unmarked) [Compound 46, 2-(azetidin-1-yl)-N-(2-(5-hydroxy-6-oxo-1,6-dihydropyrimidin-4-yl)-3-(4-((4-(morpholinomethyl)phenyl)ethynyl)phenyl)propyl)acetamide] | > 32 | > 32 | > 32 | – | –
C=CCNCC(Cc1ccc(C#Cc2ccc(CN3CCOCC3)cc2)cc1)c1nc[nH]c(=O)c1O (centres unmarked) [Compound 56, 6-(1-(allylamino)-3-(4-((4-(morpholinomethyl)phenyl)ethynyl)phenyl)propan-2-yl)-5-hydroxypyrimidin-4(3H)-one] | – | – | – | 10 to 50 | –
C[C@H]1CN(Cc2ccc(C#Cc3ccc(CC(CNCCF)c4nc[nH]c(=O)c4O)cc3)cc2)C[C@H](C)O1 (stereo partly drawn) [Compound 79, 6-(1-(4-((4-(((2S,6S)-2,6-dimethylmorpholino)methyl)phenyl)ethynyl)phenyl)-3-((2-fluoroethyl)amino)propan-2-yl)-5-hydroxypyrimidin-4(3H)-one] | – | – | – | 100 to 1000 | –
CS(=O)(=O)NCC(Cc1ccc(C#Cc2ccc(CN3CCOCC3)cc2)cc1)c1nc[nH]c(=O)c1O (centres unmarked) [Compound 80, N-(2-(5-hydroxy-6-oxo-1,6-dihydropyrimidin-4-yl)-3-(4-((4-(morpholinomethyl)phenyl)ethynyl)phenyl)propyl) methanesulfonamide] | – | – | – | 100 to 1000 | –
Cc1nnc(NCC(Cc2ccc(C#Cc3ccc(CN4CCOCC4)cc3)cc2)c2nc[nH]c(=O)c2O)o1 (centres unmarked) [Compound 87, 5-hydroxy-6-(1-((5-methyl-1,3,4-oxadiazol-2-yl)amino)-3-(4-((4-(morpholinomethyl)phenyl)ethynyl)phenyl)propan-2-yl)pyrimidin-4(3H)-one] | – | – | – | 50 to 100 | –
O=c1[nH]cnc(CCc2ccc(C#Cc3ccc(CN4CCOCC4)cc3)c(F)c2)c1O [Compound 98, 6-(3-fluoro-4-((4-(morpholinomethyl)phenyl)ethynyl)phenethyl)-5-hydroxypyrimidin-4(3H)-one] | – | – | – | < 10 | –
CO[C@H]1CCN(Cc2ccc(C#Cc3ccc(CC(C(=O)NCC(F)F)c4nc[nH]c(=O)c4O)cc3)cc2)C1 (stereo partly drawn) [Compound 105, N-(2,2-difluoroethyl)-2-(5-hydroxy-6-oxo-1,6-dihydropyrimidin-4-yl)-3-(4-((4-(((S)-3-methoxypyrrolidin-1-yl)methyl)phenyl)ethynyl)phenyl) propanamide] | – | – | – | 50 to 100 | –
COC1CN(Cc2ccc(C#Cc3ccc(CC(C(=O)NCC(F)F)c4nc[nH]c(=O)c4O)cc3)cc2)C1 (centres unmarked) [Compound 109, N-(2,2-difluoroethyl)-2-(5-hydroxy-6-oxo-1,6-dihydropyrimidin-4-yl)-3-(4-((4-((3-methoxyazetidin-1-yl)methyl)phenyl)ethynyl)phenyl) propanamide] | – | – | – | 10 to 50 | –
COCCc1ccc(C#Cc2ccc(CC(C(=O)NCC(F)F)c3nc[nH]c(=O)c3O)cc2)cc1 (centres unmarked) [Compound 114, N-(2,2-difluoroethyl)-2-(5-hydroxy-6-oxo-1,6-dihydropyrimidin-4-yl)-3-(4-((4-(2-methoxyethyl)phenyl)ethynyl)phenyl) propanamide] | – | – | – | 50 to 100 | –
N#CC1CN(Cc2ccc(C#Cc3ccc(CC(C(=O)NCC(F)F)c4nc[nH]c(=O)c4O)cc3)cc2)C1 (centres unmarked) [Compound 149, 3-(4-((4-((3-cyanoazetidin-1-yl)methyl)phenyl)ethynyl)phenyl)-N-(2,2-difluoroethyl)-2-(5-hydroxy-6-oxo-1,6-dihydropyrimidin-4-yl)propanamide] | – | – | – | < 10 | –
N#CCC1CCN(Cc2ccc(C#Cc3ccc(CC(C(=O)NCC(F)F)c4nc[nH]c(=O)c4O)cc3)cc2)CC1 (centres unmarked) [Compound 152, 3-(4-((4-((4-(cyanomethyl)piperidin-1-yl)methyl)phenyl)ethynyl)phenyl)-N-(2,2-difluoroethyl)-2-(5-hydroxy-6-oxo-1,6-dihydropyrimidin-4-yl)propanamide] | – | – | – | 100 to 1000 | –
O=C(NC1CC(F)(F)C1)C(Cc1ccc(C#Cc2ccc(CN3CCOCC3)cc2)cc1)c1nc[nH]c(=O)c1O (centres unmarked) [Compound 154, N-(3,3-difluorocyclobutyl)-2-(5-hydroxy-6-oxo-1,6-dihydropyrimidin-4-yl)-3-(4-((4-(morpholinomethyl)phenyl)ethynyl)phenyl) propanamide] | – | – | – | 50 to 100 | –
N#CC1CN(Cc2ccc(C#Cc3ccc(CC(C(=O)NCCF)c4nc[nH]c(=O)c4O)cc3)cc2)C1 (centres unmarked) [Compound 165, 3-(4-((4-((3-cyanoazetidin-1-yl)methyl)phenyl)ethynyl)phenyl)-N-(2-fluoroethyl)-2-(5-hydroxy-6-oxo-1,6-dihydropyrimidin-4-yl)propanamide] | – | – | – | < 10 | –
O=c1[nH]cnc(CCc2ccc(C#Cc3ccc(CN4CCOCC4)cc3F)cc2)c1O [Compound 185, 6-(4-((2-fluoro-4-(morpholinomethyl)phenyl)ethynyl)phenethyl)-5-hydroxypyrimidin-4(3H)-one] | < 1 | > 32 | < 1 | – | –
O=c1[nH]cnc(CCc2ccc(C#Cc3ccc(CN4CCOCC4)c(F)c3)cc2)c1O [Compound 186, 6-(4-((3-fluoro-4-(morpholinomethyl)phenyl)ethynyl)phenethyl)-5-hydroxypyrimidin-4(3H)-one] | < 1 | > 32 | < 1 | – | –
O=c1[nH]cnc(CCc2ccc(C#Cc3ccc(CN4CC(O)C4)cc3)c(F)c2)c1O [Compound 187, 6-(3-fluoro-4-((4-((3-hydroxyazetidin-1-yl)methyl)phenyl)ethynyl)phenethyl)-5-hydroxypyrimidin-4(3H)-one] | < 1 | > 32 | < 1 | – | activity at 4 µg/mL [1]: 50 to 80%; activity at 8 µg/mL [1]: 50 to 80%; activity at 16 µg/mL [1]: 20 to 50%
N#CC1CN(Cc2ccc(C#Cc3ccc(CCc4nc[nH]c(=O)c4O)cc3F)cc2)C1 [Compound 188, 1-(4-((2-fluoro-4-(2-(5-hydroxy-6-oxo-1,6-dihydropyrimidin-4-yl)ethyl)phenyl)ethynyl)benzyl)azetidine-3-carbonitrile] | 1 to 8 (≈ 2.33 to 18.7 µM) | > 32 | < 1 | – | –
O=c1[nH]cnc(C(CNCCF)Cc2ccc(C#Cc3ccc(CNC4CCOC4)cc3)cc2)c1O (centres unmarked) [Compound 198, 6-(1-((2-fluoroethyl)amino)-3-(4-((4-(((tetrahydrofuran-3-yl)amino)methyl)phenyl)ethynyl)phenyl)propan-2-yl)-5-hydroxypyrimidin-4(3H)-one] | – | – | – | 100 to 1000 | –
O=c1[nH]cnc(C(CNCCF)Cc2ccc(C#Cc3ccc(CNC4COC4)cc3)cc2)c1O (centres unmarked) [Compound 207, 6-(1-((2-fluoroethyl)amino)-3-(4-((4-((oxetan-3-ylamino)methyl)phenyl)ethynyl)phenyl)propan-2-yl)-5-hydroxypyrimidin-4(3H)-one] | – | – | – | 50 to 100 | –
O=c1[nH]cnc(CCc2ccc(C#Cc3ccc(CNC4CCOC4)cc3)cc2)c1O (centres unmarked) [Compound 241, 5-hydroxy-6-(4-((4-(((tetrahydrofuran-3-yl)amino)methyl)phenyl)ethynyl)phenethyl)pyrimidin-4(3H)-one] | < 1 | > 32 | < 1 | – | –
COCCNCc1ccc(C#Cc2ccc(CCc3nc[nH]c(=O)c3O)cc2)cc1 [Compound 245, 5-hydroxy-6-(4-((4-(((2-methoxyethyl)amino)methyl)phenyl)ethynyl)phenethyl)pyrimidin-4(3H)-one] | 1 to 8 (≈ 2.48 to 19.8 µM) | > 32 | < 1 | – | –
